Reference: article PMC4319890, “UFSRAT: Ultra-Fast Shape Recognition with Atom Types –The Discovery of Novel Bioactive Small Molecular Scaffolds for FKBP12 and 11βHSD1” (PLoS ONE, 2015)

Molecular target: T1, HEK-293 cells transfected with human 11β-HSD1 (Homo sapiens, UniProt P28845)
T1 construct: HEK-293 cells stably transfected with the full length human hsd11b1 gene; expressed in transfected cells; host or cells: HEK-293
Assay: Scintillation proximity assay (SPA), inhibition of 11β-HSD1 reductase activity in cells
Assay type: cell-based
Conditions: conversion of cortisone to cortisol; 40 nM [3H]-cortisone, 1% DMSO
Description: Testing for inhibition of 11β-HSD1 reductase activity in cells. Candidate compounds were tested for inhibition of the conversion of cortisone to cortisol by 11β-HSD1 expressed in HEK-293 cells stably transfected with the full length human hsd11b1 gene as previously described. An established scintillation proximity assay (SPA) was carried out in a 96-well plate format, with appropriate controls. Experiments were set up in triplicate with 8 inhibitor concentration points per compound, spanning 3.5 orders of magnitude. Final solution conditions: 40 nM [^3H]-cortisone; 50 mM Tris pH 8.0, 50 mM NaCl; 1% DMSO. The anti-cortisol antibody was purchased from HyTest, Finland; radiometric quantification was carried out on a Perkin Elmer TopCount instrument. The percentage inhibition was determined relative to a non-inhibited control and the IC50 determined from a plot of percentage inhibition against compound concentration. Data were fitted global nonlinear regression using Kaleidagraph V4.0 (Synergy Software).

T1 sequence (P28845 whole entry): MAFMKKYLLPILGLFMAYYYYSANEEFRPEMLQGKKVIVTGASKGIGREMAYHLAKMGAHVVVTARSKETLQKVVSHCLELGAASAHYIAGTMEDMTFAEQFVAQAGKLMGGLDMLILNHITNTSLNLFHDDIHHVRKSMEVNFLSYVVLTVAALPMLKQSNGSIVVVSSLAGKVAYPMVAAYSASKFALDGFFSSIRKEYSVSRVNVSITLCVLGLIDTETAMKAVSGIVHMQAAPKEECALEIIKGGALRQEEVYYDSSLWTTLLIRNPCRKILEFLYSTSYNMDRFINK

Row | Compound | IC50 [µM]
1 | COc1ccc(/C=C/C(=O)/C=C/c2ccc(OC)c(OC)c2)cc1OC [Compound 5, (1E,4E)-1,5-bis(3,4-dimethoxyphenyl)penta-1,4-dien-3-one] | 11.3 ± 2.6
2 | COc1ccc(C(=O)CSc2ccccn2)cc1 [Compound 8, 1-(4-methoxyphenyl)-2-(2-pyridylsulfanyl)ethanone] | 0.067 ± 0.003
3 | COc1ccc2[nH]c(SCC(=O)c3ccc(O)c(O)c3)nc2c1 [Compound 7, 1-(3,4-dihydroxyphenyl)-2-[(6-methoxy-1H-benzimidazol-2-yl)sulfanyl]ethanone] | 7.9 ± 3

Same assay, conditions: discussion

Row | Compound | affinity IC50 in a cell based assay (in words)
4 | COc1ccc(C(=O)CSc2ccccn2)cc1 [Compound 8, 1-(4-methoxyphenyl)-2-(2-pyridylsulfanyl)ethanone] | low nanomolar

Molecular target: T2, Recombinant human FKBP12 (Homo sapiens, UniProt P62942)
T2 construct: made in house
Assay: Electrospray ionization mass spectrometry (ESI-MS) binding assay
Conditions: 50°C; 100 μM ligand, 5 μM FKBP12, 10% methanol, pH 6.8; read-out: ESI-MS Kd^app
Description: Electrospray ionization mass spectrometry. Electrospray-ionization mass spectrometry (ESI-MS) was used to detect binding to FKBP12. Data was collected on a LCQ^TMDECA ion-trap instrument (ThermoQuest) run in the positive ion mode. The analyte was introduced by direct infusion and the following operating parameters were employed: nitrogen flow 100units, analyte flow 6 μl∙min^-1, capillary voltage 3.5 kV, cone voltage 25 V and capillary temperature 50°C. Spectrum were averaged over 300 scans (2s/ scan) and processed using the Bioworks Browser V 3.0 software package and ProMass 2.5 (ThermoScientific). The analyte solution consisted of 100 μM ligand, 5 μM FKBP12 in 10% methanol (v/v), 10 mM ammonium acetate, pH 6.8 incubated for 10 minutes at room temperature. Kd ^app for the interaction between the protein and ligand were calculated from the ratio of the intensity of the ion signal from free protein and protein in complex with ligand using the method of Tjernberg.

T2 sequence (P62942 whole entry): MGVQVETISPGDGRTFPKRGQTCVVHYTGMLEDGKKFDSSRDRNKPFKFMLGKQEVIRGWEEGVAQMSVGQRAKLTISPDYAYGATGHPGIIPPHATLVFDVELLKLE

Row | Compound | Kd [µM]
5 | O=C(NCC(O)c1ccccc1)c1cccc(Cl)c1 (centres unmarked) [Compound 3, 3-chloro-N-(2-hydroxy-2-phenyl-ethyl)benzamide] | 383 ± 52
6 | Cc1ccc(SCC(=O)N2CCOCC2)cc1 [Compound Q2, 1-morpholino-2-(p-tolylsulfanyl)ethanone, reference compound] | 197 ± 74
7 | CC(NC(=O)c1ccccc1)C(O)c1ccccc1 (centres unmarked) [Compound 2, N-(2-hydroxy-1-methyl-2-phenyl-ethyl)benzamide] | 399 ± 45
8 | CC(=O)Nc1ccccc1NC(=O)CCc1ccccc1 [Compound 4, N-(2-acetamidophenyl)-3-phenyl-propanamide] | 281 ± 42
9 | O=C(CNC(=O)c1ccccc1C(=O)O)c1ccccc1 [Compound 1, 2-(phenacylcarbamoyl)benzoic acid] | 313 ± 30

Tested on: 11β-HSD1
Assay: not given
Parameters: method as in PMID 16087724
Conditions: Figure 5 legend; cited from earlier work

Row | Compound | inhibitor of 11β-HSD1 (potency, type not given) [µM]
10 | CC1(C)[C@@H](OC(=O)CCC(=O)O)CC[C@]2(C)[C@H]3C(=O)C=C4[C@@H]5C[C@@](C)(C(=O)O)CC[C@]5(C)CC[C@@]4(C)[C@]3(C)CC[C@@H]12 [Carbenoxolone] | 0.02

Molecular target: T3, recombinant h11β-HSD1 (Homo sapiens, UniProt P28845)
T3 construct: made in house
Assay: Fluorescence assay, inhibition of 11β-HSD1 dehydrogenase activity
Assay type: biochemical
Conditions: conversion of cortisol to cortisone; 1 μM 11β-HSD1, 200 μM cortisol, 500 μM NADP, pH 7.7, 25°C; read-out: Fluoresc. Ki^app
Description: Testing for inhibition of 11β-HSD1 dehydrogenase activity. Candidate compounds were tested for inhibition of the conversion of cortisol to cortisone by recombinant h11β-HSD1. The dehydrogenation of cortisol is accompanied by the reduction of NADP^+ to NADPH; this was followed spectrophotometrically and scaled to a NADPH calibration curve. The excitation and emission wavelengths were 340 and 458 nm. (SpectraMax M5, Molecular Devices). The experimental conditions were 500 μM NADP, 1 μM 11β-HSD1, 200 μM cortisol 50 mM Tris, pH 7.7, 50 mM NaCl; 25°C. Reactions were carried out in sextuplicate. Ki ^app were derived from a fit of the rate of the reaction as a function of inhibitor concentration; Kaleidagraph, V4.0 [43]

T3 sequence (P28845 whole entry): as the sequence (P28845 whole entry) above

Row | Compound | Ki [µM]
11 | COc1ccc(/C=C/C(=O)/C=C/c2ccc(OC)c(OC)c2)cc1OC [Compound 5, (1E,4E)-1,5-bis(3,4-dimethoxyphenyl)penta-1,4-dien-3-one] | 142 ± 66
12 | COc1ccc(C(=O)CSc2ccccn2)cc1 [Compound 8, 1-(4-methoxyphenyl)-2-(2-pyridylsulfanyl)ethanone] | 26 ± 7
13 | Dihydroxyphenyl)-2-oxoethyl]sulfanyl}-1H-tetrazol-1-yl)benzamide [Compound 6] | 47 ± 13
14 | COc1ccc2[nH]c(SCC(=O)c3ccc(O)c(O)c3)nc2c1 [Compound 7, 1-(3,4-dihydroxyphenyl)-2-[(6-methoxy-1H-benzimidazol-2-yl)sulfanyl]ethanone] | 248 ± 73

Molecular target: T2, Recombinant human FKBP12
Assay: Thermal denaturation fluorescence (TDF) binding assay
Conditions: at the mid-point melting temperature Tm; 10 μM FKBP12, 250 μM compound, pH 7.0; read-out: TDF Kd^app at Tm
Description: Thermal denaturation fluorescence (TDF). A fluorescence based thermal denaturation assay was used to detect binding to FKBP12 essentially as described in the study of Lo [38]. Final conditions were: 50 mM ammonium acetate, pH 7.0; 10 μM FKBP12; 250 μM screening compound and 5x SYPRO orange dye (Invitrogen). […] Protein was melted over the temperature range 20 to 80°C; 0.5°C increment, 30s hold. Compounds were screened for fluorescence in the absence of protein; all samples were solvent matched and repeated in triplicate on 3 separate experiments. Apparent equilibrium dissociation constants (Kd ^app) for the interaction between the protein and ligands were calculated from the change in mid-point melting temperature of the protein (Tm) on addition of ligand and transformed to 25°C using a benchmark value for the enthalpy of ligand binding of -5 kcal∙mol^-1 [39].

Row | Compound | Kd [µM]
15 | O=C(NCC(O)c1ccccc1)c1cccc(Cl)c1 (centres unmarked) [Compound 3, 3-chloro-N-(2-hydroxy-2-phenyl-ethyl)benzamide] | 568 ± 84
16 | Cc1ccc(SCC(=O)N2CCOCC2)cc1 [Compound Q2, 1-morpholino-2-(p-tolylsulfanyl)ethanone, reference compound] | 28 ± 8
17 | CC(NC(=O)c1ccccc1)C(O)c1ccccc1 (centres unmarked) [Compound 2, N-(2-hydroxy-1-methyl-2-phenyl-ethyl)benzamide] | 575 ± 70
18 | CC(=O)Nc1ccccc1NC(=O)CCc1ccccc1 [Compound 4, N-(2-acetamidophenyl)-3-phenyl-propanamide] | 648 ± 88
19 | O=C(CNC(=O)c1ccccc1C(=O)O)c1ccccc1 [Compound 1, 2-(phenacylcarbamoyl)benzoic acid] | 548 ± 38

Same assay, conditions: value in brackets, transformed to 25°C using a benchmark enthalpy of ligand binding of -5 kcal/mol; read-out: TDF Kd^app (transformed 25°C) (converted)

Row | Compound | Kd [µM]
20 | O=C(NCC(O)c1ccccc1)c1cccc(Cl)c1 (centres unmarked) [Compound 3, 3-chloro-N-(2-hydroxy-2-phenyl-ethyl)benzamide] | 263
21 | Cc1ccc(SCC(=O)N2CCOCC2)cc1 [Compound Q2, 1-morpholino-2-(p-tolylsulfanyl)ethanone, reference compound] | 6
22 | CC(NC(=O)c1ccccc1)C(O)c1ccccc1 (centres unmarked) [Compound 2, N-(2-hydroxy-1-methyl-2-phenyl-ethyl)benzamide] | 266
23 | CC(=O)Nc1ccccc1NC(=O)CCc1ccccc1 [Compound 4, N-(2-acetamidophenyl)-3-phenyl-propanamide] | 303
24 | O=C(CNC(=O)c1ccccc1C(=O)O)c1ccccc1 [Compound 1, 2-(phenacylcarbamoyl)benzoic acid] | 252

Molecular target: FKBP12
Assay: not given
Parameters: method as in PMID 18038971
Conditions: 27°C printed for Q2; cited from earlier work

Row | Compound | Kd [µM]
25 | Cc1ccc(SCC(=O)N2CCOCC2)cc1 [Compound Q2, 1-morpholino-2-(p-tolylsulfanyl)ethanone, reference compound] | 15
26 | Cc1ccc(S(=O)(=O)CC(=O)N2CCOCC2)cc1 [Compound Q3, 2-[(4-methylbenzene)-sulfonyl]-1-(morpholin-4-yl)ethan-1-one] | 95
